Laboratory results taken from patent US11759520B1, “Theranostics for protein misfolding diseases” (UNM Rainforest Innovations, priority 2018, dated 2023).

Assays:
Aβ40 monomers = Aβ40 monomers (Homo sapiens, UniProt P05067); experiment: Photo-oxidation of Aβ40 monomers (DNPH dot blot, RP-HPLC, MS, amino acid analysis); type: biochemical; conditions: 4 hour irradiation
Protocol: To evaluate the potency of OPE to selectively photo-oxidize Aβ40 fibrils over the monomeric counterpart, the oxidation state of both Aβ40 fibrils and monomers were characterized and were compared to MB. The carbonyl content of the protein was monitored by DNPH dot blot, which increases as a result of histidine photooxidation.^20
DNPH dot blot was carried out on Aβ40 fibrils and monomers incubated in the dark or under irradiation between 0 to 6 hours (FIGS. 9A and 9B). […] Slightly higher carbonyl content in Aβ fibrils at time 0 h in the presence of MB could be due to short light exposure during sample preparation causing MB to photosensitize the oxidation of Aβ fibrils.
To confirm this observation, Aβ40 monomers were analyzed by reverse phase HPLC (RP-HPLC), mass spectrometry (MS), and amino acid analysis (FIGS. 10A and B), before and after irradiation in the presence of OPE1− and MB.

Aβ40 fibrils [1] = molecular target: T1, Aβ40 fibrils (Homo sapiens, UniProt P05067); experiment: Effect of oxidation on Aβ40 fibril morphology and secondary structure (TEM, CD); type: biochemical; conditions: irradiated with photosensitizer
T1 construct: mixed with Aβ40 fibrils (5 μM) incubated in Tris pH 8.0 (A) or PB pH 7.4 (B)
T1 sequence (P05067 672-711 limits assumed): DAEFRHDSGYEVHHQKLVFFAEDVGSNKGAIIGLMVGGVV

Aβ40 fibrils [2] = molecular target: T1, Aβ40 fibrils; experiment: Fluorescence sensing of Aβ40 fibrils over monomers (ADF, LOD); type: binding; conditions: 5 to 1 protein to sensor molar ratio
Protocol: Quantitative assessment of OPE sensor performance towards A1340 fibrils at a 5 to 1 protein to sensor molar ratio was analyzed by calculating an amyloid detector factor using the equation shown in FIG. 13, where F(dye-in-buffer), F(dye+fibrils) and F(dye+monomers) are the integrated emission intensities for sensor alone, sensor in the presence of fibrils, and sensor in the presence of monomers, respectively. Using this equation, positive ADF values indicate selective sensing of fibrils over monomers, while negative ADF values indicate selective sensing of monomers. ADF values close to zero indicate no selective sensing.

Aβ42 peptide = molecular target: T2, Aβ42 peptide (Homo sapiens, UniProt P05067); experiment: Fluorescence spectra with unincubated (oligomeric) and incubated (fibrillar) Aβ42 peptide; type: binding; conditions: ThT 20 μM, OPE 1 μM, Aβ42 5 μM
T2 construct: in the presence of unincubated (oligomeric) and incubated (fibrillar) Aβ42 peptide (5 μM)
T2 sequence (P05067 672-713 limits assumed): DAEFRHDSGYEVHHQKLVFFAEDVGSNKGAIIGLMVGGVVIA

α-synuclein = experiment: Excitation and emission spectra with α-synuclein isoforms; type: binding; conditions: 6 days of incubation
Aβ40 fibrils [3] = molecular target: T1, Aβ40 fibrils; experiment: Fluorescence sensing of Aβ40 fibrils over monomers (ADF, LOD); type: binding
[4] = Aβ40 fibrils produced in pH 7.4 PB
[5] = Aβ40 fibrils produced in pH 8.0 Tris

Sequence of Aβ40 monomers (P05067 672-711 limits assumed): as the sequence (P05067 672-711 limits assumed) above

Compound	changes of Aβ40 monomers after irradiation (Aβ40 monomers)	Aβ40 fibril morphology after irradiation (TEM) (Aβ40 fibrils [1])	ADF (Amyloid Detection Factor), Aβ40 in PB (Aβ40 fibrils [2]; [4])	ADF (Amyloid Detection Factor), Aβ40 in Tris (Aβ40 fibrils [2]; [5])	fluorescence increase with fibrillar (incubated) Aβ42 (Aβ42 peptide)	fluorescence increase with oligomeric (unincubated, prefibrillar) Aβ42 (Aβ42 peptide)	detection of prefibrillar α-synuclein aggregates (α-synuclein)	LOD (Limit of Detection), Aβ40 in PB (Aβ40 fibrils [3]; [4])	LOD (Limit of Detection), Aβ40 in Tris (Aβ40 fibrils [3]; [5])
CN(C)c1ccc2nc3ccc(=[N+](C)C)cc-3sc2c1 [MB, methylene blue, reference compound]	become more hydrophilic, present higher m/z ratio, and have a lower histidine content	fibrils dissociated and broke into shorter structures	–	–	–	–	–	–	–
Cc1ccc2c(c1)sc(-c1ccc(N(C)C)cc1)[n+]2C.[Cl-] [ThT, thioflavin T, reference compound]	–	–	0.23 +/− 0.03	0.53 +/− 0.1	large fluorescence increases	small fluorescence increases	only able to detect A53T aggregates after 6 days of incubation	0.69 ± 0.05 µM	0.65 ± 0.05 µM
